Test: xn = mol fraction of the nth substance listed
Conditions: 101 kPa, Liquid; for speed of sound: Single path-length method

COC(C)(C)C [2-methoxy-2-methylpropane] + CC(C)CC(C)(C)C
Conditions	mass density [kg/m3]	speed of sound [m/s]
288.15 K, x1 = 0.049	697.553	1121.8
288.15 K, x1 = 0.091	698.921	1119.5
288.15 K, x1 = 0.197	702.655	1113.9
288.15 K, x1 = 0.296	706.427	1108.7
288.15 K, x1 = 0.394	710.506	1103.7
288.15 K, x1 = 0.507	715.659	1098.5
288.15 K, x1 = 0.603	720.373	1094.9
288.15 K, x1 = 0.7	725.737	1090.9
288.15 K, x1 = 0.79	731.164	1087.8
288.15 K, x1 = 0.898	738.236	1084.6
288.15 K, x1 = 0.951	742.111	1083.4
288.15 K, x1 = 1	744.861	1082.1
290.65 K, x1 = 0.049	695.495	1111.2
290.65 K, x1 = 0.091	696.847	1108.8
290.65 K, x1 = 0.197	700.534	1103.3
290.65 K, x1 = 0.296	704.261	1097.9
290.65 K, x1 = 0.394	708.292	1092.9
290.65 K, x1 = 0.507	713.386	1087.6
290.65 K, x1 = 0.603	718.048	1083.9
290.65 K, x1 = 0.7	723.357	1079.8
290.65 K, x1 = 0.79	728.726	1076.7
290.65 K, x1 = 0.898	735.725	1073.3
290.65 K, x1 = 0.951	739.564	1072
290.65 K, x1 = 1	742.259	1070.6
293.15 K, x1 = 0.049	693.424	1100.6
293.15 K, x1 = 0.091	694.76	1098.2
293.15 K, x1 = 0.197	698.399	1092.6
293.15 K, x1 = 0.296	702.081	1087.1
293.15 K, x1 = 0.394	706.064	1082
293.15 K, x1 = 0.507	711.097	1076.7
293.15 K, x1 = 0.603	715.704	1072.9
293.15 K, x1 = 0.7	720.957	1068.7
293.15 K, x1 = 0.79	726.269	1065.5
293.15 K, x1 = 0.898	733.196	1062
293.15 K, x1 = 0.951	736.997	1060.6
293.15 K, x1 = 1	739.654	1059.1
295.65 K, x1 = 0.049	691.351	1090
295.65 K, x1 = 0.091	692.668	1087.5
295.65 K, x1 = 0.197	696.259	1081.8
295.65 K, x1 = 0.296	699.893	1076.2
295.65 K, x1 = 0.394	703.829	1071.1
295.65 K, x1 = 0.507	708.799	1065.6
295.65 K, x1 = 0.603	713.354	1061.7
295.65 K, x1 = 0.7	718.545	1057.5
295.65 K, x1 = 0.79	723.8	1054.2
295.65 K, x1 = 0.898	730.656	1050.5
295.65 K, x1 = 0.951	734.419	1049
295.65 K, x1 = 1	737.036	1047.8
298.15 K, x1 = 0.049	689.271	1079.4
298.15 K, x1 = 0.091	690.571	1076.9
298.15 K, x1 = 0.197	694.113	1071.2
298.15 K, x1 = 0.296	697.7	1065.5
298.15 K, x1 = 0.394	701.586	1060.2
298.15 K, x1 = 0.507	706.495	1054.7
298.15 K, x1 = 0.603	710.995	1050.7
298.15 K, x1 = 0.7	716.128	1046.4
298.15 K, x1 = 0.79	721.323	1042.9
298.15 K, x1 = 0.898	728.107	1039.2
298.15 K, x1 = 0.951	731.831	1037.6
298.15 K, x1 = 1	734.406	1036.6
300.65 K, x1 = 0.049	687.187	1068.9
300.65 K, x1 = 0.091	688.468	1066.3
300.65 K, x1 = 0.197	691.962	1060.5
300.65 K, x1 = 0.296	695.502	1054.7
300.65 K, x1 = 0.394	699.338	1049.4
300.65 K, x1 = 0.507	704.182	1043.8
300.65 K, x1 = 0.603	708.63	1039.7
300.65 K, x1 = 0.7	713.701	1035.2
300.65 K, x1 = 0.79	718.837	1031.7
300.65 K, x1 = 0.898	725.547	1027.9
300.65 K, x1 = 0.951	729.232	1026.2
300.65 K, x1 = 1	731.766	1025.4
303.15 K, x1 = 0.049	685.097	1058.4
303.15 K, x1 = 0.091	686.359	1055.8
303.15 K, x1 = 0.197	689.806	1050
303.15 K, x1 = 0.296	693.296	1044
303.15 K, x1 = 0.394	697.081	1038.7
303.15 K, x1 = 0.507	701.866	1032.8
303.15 K, x1 = 0.603	706.257	1028.7
303.15 K, x1 = 0.7	711.266	1024.1
303.15 K, x1 = 0.79	716.339	1020.4
303.15 K, x1 = 0.898	722.977	1016.5
303.15 K, x1 = 0.951	726.622	1014.8
303.15 K, x1 = 1	729.112	1014
305.65 K, x1 = 0.049	–	1048.1
305.65 K, x1 = 0.091	–	1045.4
305.65 K, x1 = 0.197	–	1039.5
305.65 K, x1 = 0.296	–	1033.4
305.65 K, x1 = 0.394	–	1028
305.65 K, x1 = 0.507	–	1021.9
305.65 K, x1 = 0.603	–	1017.7
305.65 K, x1 = 0.7	–	1013
305.65 K, x1 = 0.79	–	1009.2
305.65 K, x1 = 0.898	–	1005.2
305.65 K, x1 = 0.951	–	1003.4
305.65 K, x1 = 1	–	1002.7

Source: the NIST ThermoML archive (doi:10.1007/s10765-007-0223-x)
